In patent US20260130395A1, “Water Dispersible Botanical Compositions” (Aquila Black Limited, priority 2021, published 2026):

Experiment: Stability of cannabinoid compounds and Vitamin E components in Beverage 1 (AB White) by LCMSMS
Assay type: physicochemical

CC(=O)Oc1c(C)c(C)c2c(c1C)CCC(C)(CCC[C@H](C)CCC[C@H](C)CCCC(C)C)O2 (stereo partly drawn) [α-Tocopheryl acetate]
Stability of Vitamin Es in AB White (stored at 8° C., 0 days): 12.3 µg/mL
Stability of Vitamin Es in AB White (stored at 8° C., 1 days): 12.04 µg/mL
Stability of Vitamin Es in AB White (stored at 8° C., 2 days): 12.47 µg/mL
Stability of Vitamin Es in AB White (stored at 8° C., 3 days): 11.99 µg/mL
Stability of Vitamin Es in AB White (stored at 8° C., 5 days): 11.61 µg/mL
Stability of Vitamin Es in AB White (stored at 8° C., 8 days): 12.48 µg/mL
Stability of Vitamin Es in AB White (stored at 8° C., 9 days): 11.88 µg/mL
Stability of Vitamin Es in AB White (stored at 8° C., 10 days): 12.13 µg/mL
Stability of Vitamin Es in AB White (stored at 8° C., 11 days): 11.83 µg/mL
Stability of Vitamin Es in AB White (stored at 8° C., 12 days): 12.31 µg/mL
Stability of Vitamin Es in AB White (stored at 8° C., 15 days): 12.42 µg/mL
Stability of Vitamin Es in AB White (stored at 8° C., 16 days): 11.35 µg/mL
Stability of Vitamin Es in AB White (stored at 8° C., 17 days): 11.49 µg/mL
Stability of Vitamin Es in AB White (stored at 8° C., 18 days): 11.83 µg/mL
Stability of Vitamin Es in AB White (stored at 8° C., 19 days): 12.41 µg/mL
Stability of Vitamin Es in AB White (stored at 8° C., 22 days): 11.27 µg/mL
Stability of Vitamin Es in AB White (stored at 8° C., 23 days): 11.93 µg/mL
Stability of Vitamin Es in AB White (stored at 8° C., 24 days): 12.02 µg/mL
Stability of Vitamin Es in AB White (stored at 8° C., 25 days): 12.24 µg/mL
Stability of Vitamin Es in AB White (stored at 8° C., 26 days): 12.03 µg/mL
Stability of Vitamin Es in AB White (stored at 8° C., 29 days): 11.40 µg/mL
Stability of Vitamin Es in AB White (stored at 8° C., 30 days): 12.07 µg/mL
Stability of Vitamin Es in AB White (stored at 8° C., 60 days): 12.05 µg/mL
Stability of Vitamin Es in AB White (stored at 8° C., 90 days): 11.13 µg/mL
Stability of Vitamin Es in AB White (stored at 8° C., 120 days): 11.80 µg/mL
Stability of Vitamin Es in AB White (stored at 8° C., 150 days): 11.89 µg/mL
Stability of Vitamin Es in AB White (stored at 8° C., 180 days): 11.48 µg/mL
Stability of Vitamin Es in AB White (stored at 8° C., 210 days): 11.21 µg/mL
Stability of Vitamin Es in AB White (stored at 8° C., 240 days): 11.06 µg/mL
Stability of Vitamin Es in AB White (stored at 8° C., 270 days): 11.21 µg/mL
Stability of Vitamin Es in AB White (stored at 8° C., 300 days): 11.37 µg/mL
Stability of Vitamin Es in AB White (stored at 8° C., 330 days): 11.28 µg/mL
Stability of Vitamin Es in AB White (stored at 8° C., 360 days): 11.12 µg/mL
Stability of Vitamin Es in AB White (stored at 8° C., 390 days): 11.00 µg/mL
Stability of Vitamin Es in AB White (stored at 8° C., 420 days): 11.06 µg/mL
Stability of Vitamin Es in AB White (stored at 8° C., 450 days): 10.89 µg/mL
Stability of Vitamin Es in AB White (stored at 8° C., 480 days): 10.76 µg/mL
Stability of Vitamin Es in AB White (stored at 8° C., 510 days): 10.76 µg/mL
Stability of Vitamin Es in AB White (stored at 8° C., 540 days): 10.49 µg/mL
Stability of Vitamin Es in AB White (stored at 8° C., 570 days): 10.42 µg/mL
Stability of Vitamin Es in AB White (stored at 21-25° C., 0 days): 12.3 µg/mL
Stability of Vitamin Es in AB White (stored at 21-25° C., 1 days): 12.2 µg/mL
Stability of Vitamin Es in AB White (stored at 21-25° C., 2 days): 12.3 µg/mL
Stability of Vitamin Es in AB White (stored at 21-25° C., 3 days): 11.8 µg/mL
Stability of Vitamin Es in AB White (stored at 21-25° C., 5 days): 12.0 µg/mL
Stability of Vitamin Es in AB White (stored at 21-25° C., 8 days): 12.4 µg/mL
Stability of Vitamin Es in AB White (stored at 21-25° C., 9 days): 12.2 µg/mL
Stability of Vitamin Es in AB White (stored at 21-25° C., 10 days): 11.8 µg/mL
Stability of Vitamin Es in AB White (stored at 21-25° C., 11 days): 11.7 µg/mL
Stability of Vitamin Es in AB White (stored at 21-25° C., 12 days): 11.6 µg/mL
Stability of Vitamin Es in AB White (stored at 21-25° C., 15 days): 11.4 µg/mL
Stability of Vitamin Es in AB White (stored at 21-25° C., 16 days): 12.3 µg/mL
Stability of Vitamin Es in AB White (stored at 21-25° C., 17 days): 11.2 µg/mL
Stability of Vitamin Es in AB White (stored at 21-25° C., 18 days): 11.9 µg/mL
Stability of Vitamin Es in AB White (stored at 21-25° C., 19 days): 11.4 µg/mL
Stability of Vitamin Es in AB White (stored at 21-25° C., 22 days): 11.3 µg/mL
Stability of Vitamin Es in AB White (stored at 21-25° C., 23 days): 11.9 µg/mL
Stability of Vitamin Es in AB White (stored at 21-25° C., 24 days): 11.8 µg/mL
Stability of Vitamin Es in AB White (stored at 21-25° C., 25 days): 11.3 µg/mL
Stability of Vitamin Es in AB White (stored at 21-25° C., 26 days): 11.6 µg/mL
Stability of Vitamin Es in AB White (stored at 21-25° C., 29 days): 12.1 µg/mL
Stability of Vitamin Es in AB White (stored at 21-25° C., 30 days): 12.1 µg/mL
Stability of Vitamin Es in AB White (stored at 21-25° C., 60 days): 12.1 µg/mL
Stability of Vitamin Es in AB White (stored at 21-25° C., 90 days): 12.0 µg/mL
Stability of Vitamin Es in AB White (stored at 21-25° C., 120 days): 11.4 µg/mL
Stability of Vitamin Es in AB White (stored at 21-25° C., 150 days): 11.9 µg/mL
Stability of Vitamin Es in AB White (stored at 21-25° C., 180 days): 11.2 µg/mL
Stability of Vitamin Es in AB White (stored at 21-25° C., 210 days): 11.1 µg/mL
Stability of Vitamin Es in AB White (stored at 21-25° C., 240 days): 10.8 µg/mL
Stability of Vitamin Es in AB White (stored at 21-25° C., 270 days): 11.0 µg/mL
Stability of Vitamin Es in AB White (stored at 21-25° C., 300 days): 11.2 µg/mL
Stability of Vitamin Es in AB White (stored at 21-25° C., 330 days): 11.3 µg/mL
Stability of Vitamin Es in AB White (stored at 21-25° C., 360 days): 10.7 µg/mL
Stability of Vitamin Es in AB White (stored at 21-25° C., 390 days): 10.8 µg/mL
Stability of Vitamin Es in AB White (stored at 21-25° C., 420 days): 10.9 µg/mL
Stability of Vitamin Es in AB White (stored at 21-25° C., 450 days): 10.6 µg/mL
Stability of Vitamin Es in AB White (stored at 21-25° C., 480 days): 10.3 µg/mL
Stability of Vitamin Es in AB White (stored at 21-25° C., 510 days): 10.4 µg/mL
Stability of Vitamin Es in AB White (stored at 21-25° C., 540 days): 10.4 µg/mL
Stability of Vitamin Es in AB White (stored at 21-25° C., 570 days): 10.2 µg/mL
